Test results from ChEMBL document CHEMBL1128542, “Synthesis and antiviral activity of benzyl-substituted imidazo [1,5-a]-1,3,5-triazine (5,8-diaza-7,9-dideazapurine) derivatives” (J Med Chem, 1995).

Assays:
[1] = Minimum toxic concentration required to cause a microscopically detectable alteration of normal vero cell morphology; format: toxicity, cell-based; conditions: chlorocebus sabaeus, Vero cells; read-out: MTC
[2] = Minimum toxic concentration required to cause a microscopically detectable alteration of normal MDCK cell morphology; format: toxicity, cell-based, Canis lupus familiaris; conditions: dog, MDCK cells; read-out: MTC
[3] = test system: MDCK; assay: Inhibitory concentration against influenza virus A in MDCK cells; format: functional, cell-based; conditions: Canis lupus familiaris
[4] = test system: HeLa; assay: Inhibitory concentration against respiratory syncytial virus in HeLa cells; format: functional, cell-based; conditions: Homo sapiens
[5] = test system: MDCK; assay: Inhibitory concentration against influenza virus B in MDCK cells; format: functional, cell-based; conditions: Canis lupus familiaris
[6] = test system: Vero; assay: Inhibitory concentration against parainfluenza-3 virus in vero cells; format: functional, cell-based; conditions: Chlorocebus sabaeus
[7] = test system: CCRF-CEM; assay: Cytotoxic concentration required to inhibit CEM cell proliferation by 50%.; format: functional; conditions: Homo sapiens
[8] = Minimum toxic concentration required to cause a microscopically detectable alteration of normal HeLa cell morphology; format: toxicity, cell-based; conditions: human, HeLa cells; read-out: MTC
[9] = test system: Human immunodeficiency virus 1; assay: Inhibitory concentration against HIV-1 replication; format: functional, organism-based
[10] = test system: Human immunodeficiency virus 2; assay: Inhibitory concentration against HIV-2 replication; format: functional, organism-based

`Cc1ncn2c1NC=NC2N` (centres undefined) showed an MCC [1] of 671 µM, an MCC [2] of over 1340 µM and an IC50 [3] of over 1340 µM. The IC50 [4] was over 1340 µM, the IC50 [5] was over 1340 µM and the IC50 [6] was over 671 µM. It also gave a CC50 [7] of 746 µM and an MCC [8] of over 1340 µM.

`Cc1ccc(Cc2ncn3c(O)ncnc23)cc1` gave an MCC [1] of 625 µM, an MCC [2] of over 833 µM and an IC50 [3] of over 833 µM. The IC50 [4] was over 833 µM, the IC50 [5] was over 833 µM and the IC50 [6] was over 833 µM. It also gave a CC50 [7] of over 833 µM and an MCC [8] of over 833 µM.

`CSC1NC(=O)n2cnc(CCCCCOCc3ccccc3)c2N1` (centres undefined) gave an MCC [1] of over 112 µM, an MCC [2] of 55.8 µM and an IC50 [3] of 11.1 µM. For the same compound, the IC50 [4] was 2.2 µM, the IC50 [5] was 55.8 µM and the IC50 [6] was over 27.9 µM. It also gave a CC50 [7] of over 120 µM and an MCC [8] of 11.1 µM.

Compound `CSC1N=CNc2c(C)ncn21` (centres undefined) has an MCC [1] of 111 µM, an MCC [2] of 111 µM and an IC50 [3] of 22.2 µM. For the same compound, the IC50 [4] was 111 µM, the IC50 [5] was 22.2 µM and the IC50 [6] was over 222 µM. The CC50 [7] was 176 µM and the MCC [8] was 556 µM.

Work on `Cc1ccc(Cc2ncn3c(S)ncnc23)cc1` yielded an MCC [1] of 4.6 µM, an MCC [2] of 3.1 µM and an IC50 [3] of 2.7 µM. It also gave an IC50 [4] of 0.6 µM, an IC50 [5] of 0.6 µM and an IC50 [6] of 6.2 µM. It also gave a CC50 [7] of 32.8 µM and an MCC [8] of 6.2 µM.

`Cc1ccc(CSC2NC(=O)n3cnc(CCCCCOCc4ccccc4)c3N2)cc1` (centres undefined) gave an MCC [1] of over 89.2 µM, an MCC [2] of 223 µM and an IC50 [3] of 5.3 µM. It also gave an IC50 [4] of 2.6 µM, an IC50 [5] of 223 µM and an IC50 [6] of over 22.3 µM. The CC50 [7] was 343 µM and the MCC [8] was 44.6 µM.

In the case of `O=c1[nH]c(=S)[nH]c2c(Cc3ccccc3)ncn12`, the MCC [1] is reported as 581 µM, the MCC [2] is reported as over 775 µM and the IC50 [3] is reported as 54.2 µM. The IC50 [4] was over 775 µM, the IC50 [5] was over 581 µM and the IC50 [6] was over 775 µM. For the same compound, the CC50 [7] was 430 µM and the MCC [8] was over 775 µM.

`NC(=O)c1ncn([C@@H]2O[C@H](CO)[C@@H](O)[C@H]2O)n1` [RIBAVIRIN] showed an MCC [1] of over 1640 µM, an MCC [2] of over 820 µM and an IC50 [3] of 4.9 µM. It also gave an IC50 [4] of 11.4 µM, an IC50 [6] of 287 µM and an MCC [8] of over 820 µM.

In the case of `Cc1nc(C)n2c(=O)[nH]c(=S)[nH]c12`, the MCC [1] is reported as 1020 µM, the MCC [2] is reported as over 1020 µM and the IC50 [3] is reported as 510 µM. For the same compound, the IC50 [4] was over 510 µM, the IC50 [5] was over 1020 µM and the IC50 [6] was over 1020 µM. For the same compound, the CC50 [7] was 526 µM and the MCC [8] was 510 µM.

Compound `Cc1ccc(CSC2NC(=O)n3c(C)nc(C)c3N2)cc1` (centres undefined) has an MCC [1] of 328 µM, an MCC [2] of 328 µM and an IC50 [3] of 65.6 µM. The IC50 [4] was 15.7 µM, the IC50 [5] was over 328 µM and the IC50 [6] was over 131 µM. It also gave a CC50 [7] of 88.8 µM and an MCC [8] of 328 µM.

`Cc1ccc(Cc2ncn3c(=O)[nH]c(=S)[nH]c23)cc1` gave an MCC [1] of over 735 µM, an MCC [2] of over 735 µM and an IC50 [3] of 54.4 µM. The IC50 [4] was 257 µM, the IC50 [5] was over 551 µM and the IC50 [6] was over 735 µM. The CC50 [7] was over 735 µM and the MCC [8] was over 735 µM.

Compound `Cc1ccc(CSc2ncnc3c(Cc4ccc(C)cc4)ncn23)cc1` has an MCC [1] of 278 µM, an MCC [2] of 278 µM and an IC50 [3] of over 278 µM. It also gave an IC50 [4] of over 278 µM, an IC50 [5] of over 278 µM and an IC50 [6] of over 278 µM. The CC50 [7] was over 111 µM and the MCC [8] was 278 µM.

Work on `Cc1ncn2c(S)ncnc12` yielded an MCC [1] of 602 µM, an MCC [2] of 602 µM and an IC50 [3] of 181 µM. It also gave an IC50 [4] of over 602 µM, an IC50 [5] of 241 µM and an IC50 [6] of over 602 µM. The CC50 [7] was 789 µM and the MCC [8] was 602 µM.

`NC12CC3CC(CC(C3)C1)C2` [AMANTADINE] showed an MCC [2] of over 661 µM, an IC50 [3] of 661 µM and an IC50 [4] of over 661 µM. It also gave an IC50 [5] of over 1320 µM and an MCC [8] of 661 µM.

Compound `CSc1ncnc2c(Cc3ccc(C)cc3)ncn12` has an MCC [1] of over 370 µM, an MCC [2] of 74 µM and an IC50 [3] of 14.8 µM. The IC50 [4] was 22.2 µM, the IC50 [5] was 74 µM and the IC50 [6] was over 148 µM. The CC50 [7] was 389 µM and the MCC [8] was 74 µM.

In the case of `Cc1ncn2c(=O)[nH]c(=S)[nH]c12`, the MCC [1] is reported as 1100 µM, the MCC [2] is reported as over 1100 µM and the IC50 [3] is reported as over 1100 µM. The IC50 [4] was over 550 µM, the IC50 [5] was over 1100 µM and the IC50 [6] was over 1100 µM. For the same compound, the CC50 [7] was 786 µM and the MCC [8] was 549 µM.

`Cc1ccc(CSC2NC(=O)n3cnc(Cc4ccc(C)cc4)c3N2)cc1` (centres undefined) gave an MCC [1] of over 260 µM, an MCC [2] of 260 µM and an IC50 [3] of 4.1 µM. It also gave an IC50 [4] of 1.4 µM, an IC50 [5] of 51.9 µM and an IC50 [6] of over 104 µM. It also gave a CC50 [7] of 44.6 µM and an MCC [8] of 10.3 µM.

For `Cc1nc(C)n2c1NC=NC2N` (centres undefined), the MCC [1] was over 1100 µM, the MCC [2] was over 1100 µM and the IC50 [3] was over 1100 µM. The IC50 [4] was over 1100 µM, the IC50 [5] was over 1100 µM and the IC50 [6] was over 1100 µM. The CC50 [7] was 115 µM and the MCC [8] was over 1100 µM.

Work on `Cc1nc(Cc2ccccc2)c2ncnc(O)n12` yielded an MCC [1] of 417 µM, an MCC [2] of over 833 µM and an IC50 [3] of 625 µM. The IC50 [4] was over 417 µM, the IC50 [5] was over 833 µM and the IC50 [6] was over 417 µM. It also gave a CC50 [7] of 262 µM and an MCC [8] of 417 µM.

`CSC1NC(=O)n2cnc(Cc3ccc(C)cc3)c2N1` (centres undefined) gave an MCC [1] of over 339 µM, an MCC [2] of 67.7 µM and an IC50 [3] of 27.1 µM. For the same compound, the IC50 [4] was 4 µM, the IC50 [5] was 67.7 µM and the IC50 [6] was 136 µM. It also gave a CC50 [7] of 75.3 µM and an MCC [8] of 20.3 µM.

For `Cc1ccc(Cc2ncn3c(N(C)C)ncnc23)cc1`, the MCC [1] was 374 µM, the MCC [2] was over 749 µM and the IC50 [3] was over 749 µM. For the same compound, the IC50 [4] was over 749 µM, the IC50 [5] was over 749 µM and the IC50 [6] was over 374 µM. For the same compound, the CC50 [7] was 412 µM and the MCC [8] was over 749 µM.

In the case of `CN(C)c1ncnc2c(Cc3ccccc3)ncn12`, the MCC [1] is reported as over 790 µM, the MCC [2] is reported as over 790 µM and the IC50 [3] is reported as over 790 µM. For the same compound, the IC50 [4] was 395 µM, the IC50 [5] was over 790 µM and the IC50 [6] was over 790 µM. It also gave a CC50 [7] of over 790 µM and an MCC [8] of over 790 µM.

With `Cc1nc(C)n2c1NC(SCc1ccccc1)NC2=O` (centres undefined) the MCC [1] was over 350 µM, the MCC [2] was over 699 µM and the IC50 [3] was 69.9 µM. The IC50 [4] was 20.9 µM, the IC50 [5] was 699 µM and the IC50 [6] was over 140 µM. The CC50 [7] was 266 µM and the MCC [8] was over 524 µM.

For `Oc1ncnc2c(Cc3ccccc3)ncn12`, the MCC [1] was over 885 µM, the MCC [2] was over 885 µM and the IC50 [3] was over 885 µM. The IC50 [4] was 664 µM, the IC50 [5] was over 885 µM and the IC50 [6] was over 885 µM. For the same compound, the CC50 [7] was 633 µM and the MCC [8] was over 885 µM.

Compound `CSC1N=CNc2c(C)nc(C)n21` (centres undefined) has an MCC [1] of 515 µM, an MCC [2] of 515 µM and an IC50 [3] of 103 µM. For the same compound, the IC50 [4] was over 515 µM, the IC50 [5] was 103 µM and the IC50 [6] was over 515 µM. The CC50 [7] was 440 µM and the MCC [8] was 515 µM.

With `Sc1ncnc2c(Cc3ccccc3)ncn12` the MCC [1] was 24.7 µM, the MCC [2] was 16.5 µM and the IC50 [3] was 4.9 µM. The IC50 [4] was 3.3 µM, the IC50 [5] was 3.3 µM and the IC50 [6] was 33 µM. The IC50 [9] was 20.6 µM, the IC50 [10] was 17.7 µM and the CC50 [7] was 35.1 µM. It also gave an MCC [8] of 16.5 µM.

Work on `O=c1[nH]c(=S)[nH]c2c(CCCCCOCc3ccccc3)ncn12` yielded an MCC [2] of 291 µM, an IC50 [3] of 174 µM and an IC50 [4] of 23.2 µM. The IC50 [5] was over 291 µM, the CC50 [7] was 259 µM and the MCC [8] was 87.2 µM.

Compound `Cc1nc(C)n2c(S)ncnc12` has an MCC [1] of 556 µM, an MCC [2] of over 1110 µM and an IC50 [3] of 222 µM. For the same compound, the IC50 [4] was over 556 µM, the IC50 [5] was 833 µM and the IC50 [6] was over 556 µM. For the same compound, the CC50 [7] was over 694 µM and the MCC [8] was 556 µM.
